Measurements as given in USRE46942E1, “4-piperidinyl compounds for use as tankyrase inhibitors” (NOVARTIS AG, priority 2011, dated 2018).

Assays:
[1] = test system: Wnt ligand-induced signaling in HEK293 cells; test: Wnt-responsive Super-TOp-Flash (STF) luciferase reporter gene assay; type: cell-based; details: Homo sapiens, Wnt3A condition medium
Procedure: Compound activity in inhibiting Wnt ligand-induced signaling was measured using a Wnt-responsive Super-TOp-Flash (STF) luciferase reporter gene assay in HEK293 cells. On day 1 of the assay, cells were plated at a density of 8000 cells per well of 384-well plate in 25 μl medium containing 5% fetal bovine serum (FBS). […] On the third day, the luciferase activity was measured by the Bright-Glo™ Luciferase Assay System following manufacture's protocol (Promega, E2620).

[2] = test system: Non-small lung cancer ABC-1 cells; test: Cellular proliferation assay (CellTiter-Glo); type: cell-based; details: Homo sapiens, 72 h, 3 days of compound treatment
Procedure: Non-small lung cancer ABC-1 cells were plated at 5000 cells per well in 96-well plates and treated with 8 serial compound dilutions starting from 10 μM as the highest concentration. Viable cells were measured after 3 days of compound treatment using the CellTiter-Glo assay (Promega, G7570). Assay was performed following the manufacture protocol.

[3] = test system: Axin2 protein in colorectal cell line SW480; test: Cellular ELISA assay for stabilizing the Axin2 protein; type: cell-based; details: Homo sapiens; SW480 cells, 24 hrs; read-out: Axin AC50
Procedure: Compound activity in stabilizing the Axin2 protein was measured by Sandwich Enzyme-Linked Immuosorbent (ELISA) assay in the colorectal cell line SW480. 30,000 SW480 cells were seeded per well in 96-well plate and incubated overnight prior to compound treatment. […] Cells were then washed with 100 μL of cold Phosphate Buffer Saline (PBS), and lysed in 125 μl of cold 1× lysis buffer (Cell Signaling Technology, 9803) supplemented with Protease inhibitor (Roche, 11836170) and Phosphatase inhibitors (Sigma, P2850, P5726). […] After blocking, plates were then washed three times with 300 μl/well of wash solution. 100 μL of prepared SW480 cell lysate was then added to each well and incubated at room temperature for 2 hours while shaking gently. After washing, 100 μL of Biotinylated anti-Axin2 antibody (CST, 2151) was added to each well and incubated room temperature for 2 hours. 100 μL of Streptavidin-HRP (R&D systems, DY998) diluted 1:200 in 1% BSA/PBS was then added in each well and incubate for 30 mins at R/T in the dark. Signal was detected by Chemiluminescence (Pierce SuperSignal ELISA Femto #3704), and measured on PerkinElmer Wallac 1420 plate reader.

[4] = test system: Herpes Simplex Virus (HSV); details: cited from earlier work

With `COc1ccc2c(c1)CC1(CCN([C@H]3CCN(Cc4nc5c(c(=O)[nH]4)COCC5)C3=O)CC1)C2=O` [Example 16, (S)-2-((3-(5-methoxy-1-oxo-1,3-dihydrospiro[indene-2,4′-piperidine]-1′-yl)-2-oxopyrrolidin-1-yl)methyl)-7,8-dihydro-3H-pyrano[4,3-d]pyrimidin-4(5H)-one] the IC50 [1] was 1.7 ± 0.2 nM, the IC50 [2] was 82 nM and the AC50 [3] was 7 ± 1 nM.

With `COc1ccc(C(=O)C2CCN([C@@H]3CCN(CC(=O)Nc4nnc5n4CCS5)C3=O)CC2)cc1` (single isomer, unassigned) [Example 34] the IC50 [2] was 49 nM and the AC50 [3] was 78 ± 6 nM.

With `COc1ccc2c(c1)CC1(CCN([C@@H]3CCN(Cc4nc5c(c(=O)[nH]4)COCC5)C3=O)CC1)C2=O` [Example 17, (R)-2-((3-(5-methoxy-1-oxo-1,3-dihydrospiro[indene-2,4′-piperidine]-1′-yl)-2-oxopyrrolidin-1-yl)methyl)-7,8-dihydro-3H-pyrano[4,3-d]pyrimidin-4(5H)-one] the IC50 [1] was 396 ± 10 nM, the IC50 [2] was 2000 ± 900 nM and the AC50 [3] was 1790 ± 140 nM.

Molecule `COc1ccc(C(=O)C2CCN([C@H]3CCN(CC(=O)Nc4nnc5n4CCS5)C3=O)CC2)cc1` [Example 33, N-(5,6-dihydrothiazolo[2,3-c][1,2,4]triazol-3-yl)-2-((S)-3-(4-(4-methoxybenzoyl)piperidin-1-yl)-2-oxopyrrolidin-1-yl)acetamide] has an IC50 [2] of 1610 nM and an AC50 [3] of 1340 ± 110 nM.

For `Oc1nc(-c2ccc(C(F)(F)F)cc2)nc2c1CSCC2` [XAV939], the viral growth [4] is listed as “decreased viral growth”.
